In PubChem BioAssay AID256 (DTP/NCI, 2004):
Inconclusive results and toxic doses are left out. The calls were made as follows: active = survival T/C of 150% or more; inactive = T/C below 125% in these data.

Test system: CD2F1 mice, L1210 leukemia ip, survival T/C
Experiment: NCI In Vivo Anticancer Drug Screen. Data for tumor model L1210 Leukemia (intraperitoneal) in CD2F1 (CDF1) mice
Details: higher = longer survival
Outline: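 Tumor-bearing mice (transplanted tumor) were split into treated and vehicle control groups, and the measured endpoint of each treated group was divided by that of its vehicle controls.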

[1] = endpoint: mean survival time, dose: 12.5 mg/kg/injection, schedule: Q01DX005 (ip), vehicle: distilled water + Tween-80
[2] = endpoint: mean survival time, dose: 25.0 mg/kg/injection, schedule: Q01DX005 (ip), vehicle: distilled water + Tween-80
[3] = endpoint: mean survival time, dose: 50.0 mg/kg/injection, schedule: Q01DX005 (ip), vehicle: distilled water + Tween-80
[4] = endpoint: mean survival time, dose: 100.0 mg/kg/injection, schedule: Q01DX005 (ip), vehicle: distilled water + Tween-80
[5] = endpoint: mean survival time, dose: 100.0 mg/kg/injection, schedule: Q04DX003 (ip), vehicle: saline with Tween-80
[6] = endpoint: mean survival time, dose: 200.0 mg/kg/injection, schedule: Q04DX003 (ip), vehicle: saline with Tween-80
[7] = endpoint: mean survival time, dose: 400.0 mg/kg/injection, schedule: Q04DX003 (ip), vehicle: saline with Tween-80
[8] = endpoint: mean survival time, dose: 100.0 mg/kg/injection, schedule: Q01DX001 (ip), vehicle: saline
[9] = endpoint: mean survival time, dose: 200.0 mg/kg/injection, schedule: Q01DX001 (ip), vehicle: saline
[10] = endpoint: mean survival time, dose: 400.0 mg/kg/injection, schedule: Q01DX001 (ip), vehicle: saline
[11] = endpoint: mean survival time, dose: 100.0 mg/kg/injection, schedule: Q04DX003 (ip), vehicle: saline
[12] = endpoint: mean survival time, dose: 200.0 mg/kg/injection, schedule: Q04DX003 (ip), vehicle: saline
[13] = endpoint: mean survival time, dose: 400.0 mg/kg/injection, schedule: Q04DX003 (ip), vehicle: saline

Measured: T/C

O=C(OCC1OC(n2cnc3cc(Cl)c(Cl)cc32)C(OC(=O)c2ccccc2)C1OC(=O)c1ccccc1)c1ccccc1 (configuration not stated)
inactive: [1] 95 % of control | [2] 101 % of control | [3] 93 % of control | [4] 95 % of control

O=Cc1cc2c3c(c1)CCCN3CCC2
inactive: [5] 97 % of control | [6] 102 % of control | [7] 94 % of control

CCCCCOS(=O)(=O)O
inactive: [8] 108 % of control | [9] 120 % of control | [10] 102 % of control

O=c1[nH]c(=O)n(C2OC(CO)C(O)C(O)C2O)cc1F (configuration not stated)
inactive: endpoint: mean survival time, dose: 12.5 mg/kg/injection, schedule: Q01DX005 (ip), vehicle: water 105 % of control | endpoint: mean survival time, dose: 25.0 mg/kg/injection, schedule: Q01DX005 (ip), vehicle: water 95 % of control | endpoint: mean survival time, dose: 50.0 mg/kg/injection, schedule: Q01DX005 (ip), vehicle: water 101 % of control | endpoint: mean survival time, dose: 100.0 mg/kg/injection, schedule: Q01DX005 (ip), vehicle: water 103 % of control | endpoint: mean survival time, dose: 200.0 mg/kg/injection, schedule: Q01DX005 (ip), vehicle: water 94 % of control

Cc1nc(N)[nH]c(=O)c1[N+](=O)[O-]
inactive: endpoint: mean survival time, dose: 100.0 mg/kg/injection, schedule: Q04DX003 (ip), vehicle: other 108 % of control | endpoint: mean survival time, dose: 200.0 mg/kg/injection, schedule: Q04DX003 (ip), vehicle: other 113 % of control

Cc1ncnc2c1ncn2C1OC(CO)C(O)C1O (configuration not stated)
inactive: endpoint: mean survival time, dose: 0.25 mg/kg/injection, schedule: Q01DX005 (ip), vehicle: saline 113 % of control | endpoint: mean survival time, dose: 0.5 mg/kg/injection, schedule: Q01DX005 (ip), vehicle: saline 112 % of control | endpoint: mean survival time, dose: 1.0 mg/kg/injection, schedule: Q01DX005 (ip), vehicle: saline 124 % of control | endpoint: mean survival time, dose: 4.0 mg/kg/injection, schedule: Q01DX005 (ip), vehicle: saline 113 % of control

CC(O)C1OC(n2cnc3c(=O)[nH]c(N)nc32)C(O)C1O (configuration not stated)
inactive: [1] 101 % of control | [2] 100 % of control | [3] 101 % of control | [4] 97 % of control | endpoint: mean survival time, dose: 200.0 mg/kg/injection, schedule: Q01DX005 (ip), vehicle: distilled water + Tween-80 97 % of control | endpoint: median survival time, dose: 12.5 mg/kg/injection, schedule: Q01DX005 (ip), vehicle: distilled water + Tween-80 112 % of control | endpoint: median survival time, dose: 20.0 mg/kg/injection, schedule: Q01DX005 (ip), vehicle: distilled water + Tween-80 108 % of control | endpoint: median survival time, dose: 50.0 mg/kg/injection, schedule: Q01DX005 (ip), vehicle: distilled water + Tween-80 112 % of control | endpoint: median survival time, dose: 100.0 mg/kg/injection, schedule: Q01DX005 (ip), vehicle: distilled water + Tween-80 104 % of control | endpoint: median survival time, dose: 200.0 mg/kg/injection, schedule: Q01DX005 (ip), vehicle: distilled water + Tween-80 96 % of control

COc1ccc(/C=N/N=C(/C(=O)c2ccc(OC)cc2)c2ccc(OC)cc2)cc1
inactive: [8] 95 % of control | [11] 102 % of control | [9] 91 % of control | [12] 97 % of control | [10] 95 % of control | [13] 96 % of control

CC1(C)OCC(C(O)C(O)C(O)CO)O1 (configuration not stated)
inactive: endpoint: mean survival time, dose: 50.0 mg/kg/injection, schedule: Q01DX009 (ip), vehicle: saline 102 % of control | endpoint: mean survival time, dose: 100.0 mg/kg/injection, schedule: Q01DX009 (ip), vehicle: saline 98 % of control | endpoint: mean survival time, dose: 200.0 mg/kg/injection, schedule: Q01DX009 (ip), vehicle: saline 102 % of control

CC(=O)C1CCOC1=O (configuration not stated)
inactive: [11] 96 % of control | [12] 104 % of control | [13] 98 % of control

CC(Br)C(=O)NCC(=O)O (configuration not stated)
inactive: [5] 92 % of control | [6] 91 % of control | [7] 95 % of control

C[n+]1ccncc1
inactive: [8] 102 % of control | [9] 102 % of control | [10] 104 % of control

COc1cc(OC)c(NC(=O)Nc2ccc(CCO)cc2)cc1Cl
inactive: endpoint: mean survival time, dose: 50.0 mg/kg/injection, schedule: Q01DX009 (ip), vehicle: saline with Tween-80 93 % of control | endpoint: mean survival time, dose: 100.0 mg/kg/injection, schedule: Q01DX009 (ip), vehicle: saline with Tween-80 86 % of control | endpoint: mean survival time, dose: 200.0 mg/kg/injection, schedule: Q01DX009 (ip), vehicle: saline with Tween-80 93 % of control
